Test results: ChEMBL document CHEMBL1138694, “Discovery of small molecule antagonists of TRPV1” (2004)

Assays:
[1] = target: Transient receptor potential cation channel subfamily V member 1 (Homo sapiens) (UniProt Q8NER1); test: Antagonistic activity against human transient receptor potential vanilloid type 1 in FLIPR assay; type: functional
[2] = Antagonistic activity against rat transient receptor potential vanilloid type 1 expressed in HEK293 cells compared to capsaicin; type: functional
[3] = Inhibition of capsaicin- response in rat dorsal root ganglion; type: functional
[4] = target: Transient receptor potential cation channel subfamily V member 1 (Cavia porcellus) (UniProt Q6R5A3); test: Antagonistic activity against guinea pig Transient receptor potential vanilloid type 1 expressed in HEK293 cells compared to capsaicin
Sequence of Transient receptor potential cation channel subfamily V member 1 (Cavia porcellus) (Q6R5A3 whole entry, looked up): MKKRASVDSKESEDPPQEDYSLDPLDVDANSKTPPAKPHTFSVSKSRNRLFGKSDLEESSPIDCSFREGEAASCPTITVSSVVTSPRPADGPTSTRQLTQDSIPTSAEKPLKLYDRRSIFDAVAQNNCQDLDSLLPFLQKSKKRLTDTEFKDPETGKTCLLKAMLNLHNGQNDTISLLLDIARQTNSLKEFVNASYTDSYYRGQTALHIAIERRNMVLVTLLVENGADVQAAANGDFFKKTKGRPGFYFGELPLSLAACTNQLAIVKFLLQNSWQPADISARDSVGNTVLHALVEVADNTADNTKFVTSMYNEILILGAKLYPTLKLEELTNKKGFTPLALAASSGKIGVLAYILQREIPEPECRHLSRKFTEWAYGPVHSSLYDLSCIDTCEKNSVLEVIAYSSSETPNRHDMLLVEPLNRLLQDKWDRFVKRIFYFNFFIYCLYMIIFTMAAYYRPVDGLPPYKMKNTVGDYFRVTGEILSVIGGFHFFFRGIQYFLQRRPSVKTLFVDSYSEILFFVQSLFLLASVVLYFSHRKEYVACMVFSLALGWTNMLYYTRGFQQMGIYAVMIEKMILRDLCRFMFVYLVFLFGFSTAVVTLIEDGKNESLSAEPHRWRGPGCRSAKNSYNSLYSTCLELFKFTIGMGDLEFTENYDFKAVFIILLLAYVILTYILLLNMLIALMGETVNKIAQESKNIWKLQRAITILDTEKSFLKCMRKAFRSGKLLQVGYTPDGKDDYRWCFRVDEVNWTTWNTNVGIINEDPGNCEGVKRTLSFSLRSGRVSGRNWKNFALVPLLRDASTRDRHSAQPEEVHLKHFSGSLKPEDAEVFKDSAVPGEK

Sequence of Transient receptor potential cation channel subfamily V member 1 (Homo sapiens) (Q8NER1 whole entry): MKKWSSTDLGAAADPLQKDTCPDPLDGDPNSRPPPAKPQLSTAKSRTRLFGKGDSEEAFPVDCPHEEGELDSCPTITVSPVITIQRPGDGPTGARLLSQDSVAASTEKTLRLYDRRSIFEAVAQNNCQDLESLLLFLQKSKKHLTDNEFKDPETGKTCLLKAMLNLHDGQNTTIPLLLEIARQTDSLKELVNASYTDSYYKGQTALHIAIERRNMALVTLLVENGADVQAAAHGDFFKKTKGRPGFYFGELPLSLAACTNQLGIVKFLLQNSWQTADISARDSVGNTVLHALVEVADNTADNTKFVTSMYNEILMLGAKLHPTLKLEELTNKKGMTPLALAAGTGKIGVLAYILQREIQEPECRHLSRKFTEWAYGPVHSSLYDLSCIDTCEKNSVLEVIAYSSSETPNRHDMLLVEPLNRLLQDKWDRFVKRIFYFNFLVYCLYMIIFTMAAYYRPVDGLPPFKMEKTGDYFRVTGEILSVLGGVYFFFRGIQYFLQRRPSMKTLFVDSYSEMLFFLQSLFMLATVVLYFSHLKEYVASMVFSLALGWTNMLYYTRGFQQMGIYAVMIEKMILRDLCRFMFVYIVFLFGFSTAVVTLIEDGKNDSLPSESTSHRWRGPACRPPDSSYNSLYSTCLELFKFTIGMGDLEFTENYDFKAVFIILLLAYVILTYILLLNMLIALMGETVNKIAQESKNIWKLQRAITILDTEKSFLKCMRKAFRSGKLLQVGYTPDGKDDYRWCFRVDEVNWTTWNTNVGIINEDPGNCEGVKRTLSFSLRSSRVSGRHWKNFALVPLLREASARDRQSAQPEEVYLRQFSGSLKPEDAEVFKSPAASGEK

| pKb [1] | pKb [4] | Structure (SMILES) | pKb [2] | pKb [3] |
| --- | --- | --- | --- | --- |
| 7.7 | – | COc1cccc(NC(=O)/C=C/c2ccc(Cl)cc2)c1 | – | – |
| 7.5 | – | Oc1cc2c(cc1O)CN(C(=S)NCCc1ccc(Cl)cc1)CCC2 | – | – |
| 7.8 | 7.5 | CCN(CCNC(=O)Nc1ccccc1Br)c1cccc(C)c1 | 7.7 | 7.4 |
